Structures can show the parent of a compound that is named as a salt. Where two headings read alike, the source gives them in different places.
Assays:
[1] = test system: NCI-H292 lung cancer cells; experiment: FDA drug screening, complete media vs cholesterol-free media without statin (TABLE 1); type: cell-based, human
[2] = test system: NCI-H292 lung cancer cells; experiment: FDA drug screening, complete media vs cholesterol-free media with simvastatin (TABLE 2); type: cell-based, human
[3] = NCI-H292 cells, cholesterol-free media without statin
[4] = complete vs cholesterol-free media, greater than 0 enhanced anti-cancer activity, about 0 neutral, below 0 antagonists
[5] = NCI-H292 cells, FDA drug library screen, cholesterol-free media with simvastatin 0.04 μM
[6] = NCI-H292 cells, FDA drug library screen, complete media
[7] = complete media vs cholesterol-free media + simvastatin (0.04 μM), >0 enhanced anti-cancer activity, about 0 neutral, <0 antagonist
[8] = Complete minus Cholesterol-free, greater than 0 enhanced anti-cancer activity, about 0 neutral, below 0 antagonists
[9] = NCI-H292 cells in cholesterol-free media without statin
[10] = NCI-H292 cells in complete media
[11] = NCI-H292 cells, FDA library drug in cholesterol-free media with simvastatin 0.04 μM
[12] = NCI-H292 cells, FDA library drug in complete media
[13] = NCI-H292 cells, cholesterol-free media without statin, FDA drug library screen
[14] = NCI-H292 cells, complete media, FDA drug library screen
[15] = complete vs cholesterol-free media, >0 enhanced anti-cancer activity, about 0 neutral, <0 antagonist
[16] = complete media minus cholesterol-free media + simvastatin, >0 enhanced anti-cancer activity, about 0 neutral, <0 antagonist
[17] = NCI-H292 cells, cholesterol-free media with simvastatin 0.04 μM, FDA drug library screen (TABLE 2)
[18] = NCI-H292 cells, complete media, FDA drug library screen (TABLE 2)
[19] = complete media minus cholesterol-free media + simvastatin (0.04 μM), >0 enhanced anti-cancer activity, about 0 neutral, <0 antagonist
[20] = Complete minus Cholesterol-free, greater than 0 enhanced anti-cancer activity, about 0 neutral, below 0 antagonist
[21] = NCI-H292 cells, FDA drug library screen, cholesterol-free media without statin
[22] = NCI-H292 cells, cholesterol-free media with simvastatin 0.04 μM, cell growth value in FDA drug screen
[23] = NCI-H292 cells, complete media, cell growth value in FDA drug screen
[24] = Complete minus Cholesterol-free, >0 enhanced anti-cancer activity, about 0 neutral, <0 antagonist

## Nc1c2c(nc3ccccc13)CCCC2 [Tacrine (hydrochloride)]
[1]; [3]
  Cholesterol-free: 1.218
[1]; NCI-H292 cells, complete media
  Complete: 0.7601
[1]; [4]
  Difference: −0.46
[2]; [5]
  Cholesterol-free media + simvastatin (0.04 μM): 1.139
[2]; [6]
  Complete Media: 1.054
[2]; [7]
  Difference: −0.08

## CNC(=C[N+](=O)[O-])NCCSCc1ccc(CN(C)C)o1 [Ranitidine (hydrochloride)]
[1]; [8]
  Difference: −0.55
[1]; [9]
  Cholesterol-free: 1.186
[1]; [10]
  Complete: 0.6384
[2]; [11]
  Cholesterol-free media + simvastatin (0.04 μM): 1.27
[2]; [12]
  Complete Media: 0.8219
[2]; [7]
  Difference: −0.45

## COc1cccc(CCc2ccccc2OCC(CN(C)C)OC(=O)CCC(=O)O)c1 (stereo not shown) [Sarpogrelate (hydrochloride)]
[1]; [3]
  Cholesterol-free: 1.015
[1]; NCI-H292 cells, complete media
  Complete: 0.6472
[1]; [4]
  Difference: −0.37
[2]; [11]
  Cholesterol-free media + simvastatin (0.04 μM): 1.378
[2]; [12]
  Complete Media: 1.089
[2]; [7]
  Difference: −0.29

## COc1cc2c(cc1OC)CC(=O)N(CCCN(C)C[C@H]1Cc3cc(OC)c(OC)cc31)CC2 [Ivabradine (hydrochloride)]
[1]; [4]
  Difference: −0.47
[2]; [5]
  Cholesterol-free media + simvastatin (0.04 μM): 1.338
[2]; [6]
  Complete Media: 1.217
[2]; [7]
  Difference: −0.12

## CCCCC/C=C\C/C=C\CCCCCCCC(=O)O [Linoleic acid]
[1]; [13]
  Cholesterol-free: 1.134
[1]; [14]
  Complete: 1.557
[1]; [15]
  Difference: 0.42
[2]; [5]
  Cholesterol-free media + simvastatin (0.04 μM): 1.399
[2]; [6]
  Complete Media: 1.847
[2]; [16]
  Difference: 0.45

## CN1CCN(CC(=O)N2c3ccccc3C(=O)Nc3cccnc32)CC1 [Pirenzepine (dihydrochloride)]
[1]; [13]
  Cholesterol-free: 1.465
[1]; [14]
  Complete: 1.606
[1]; [15]
  Difference: 0.14
[2]; [17]
  Cholesterol-free media + simvastatin (0.04 μM): 1.293
[2]; [18]
  Complete Media: 1.265
[2]; [19]
  Difference: −0.03

## CCO.C[C@H]1c2cccc(O)c2C(O)=C2C(=O)[C@]3(O)C(O)=C(C(N)=O)C(=O)[C@@H](N(C)C)[C@@H]3[C@@H](O)[C@@H]21.C[C@H]1c2cccc(O)c2C(O)=C2C(=O)[C@]3(O)C(O)=C(C(N)=O)C(=O)[C@@H](N(C)C)[C@@H]3[C@@H](O)[C@@H]21.Cl.Cl.O [Doxycycline (hyclate)]
[1]; [20]
  Difference: −0.15
[1]; [21]
  Cholesterol-free: 1.09
[1]; [6]
  Complete: 0.9355
[2]; NCI-H292 cells, drug in cholesterol-free media with simvastatin 0.04 μM
  Cholesterol-free media + simvastatin (0.04 μM): 1.074
[2]; NCI-H292 cells, drug in complete media
  Complete Media: 0.8852
[2]; [7]
  Difference: −0.19

## CSCC[C@H](N)C(=O)O [L-Methionine]
[1]; [20]
  Difference: −0.12
[1]; [21]
  Cholesterol-free: 0.9015
[1]; [6]
  Complete: 0.7822
[2]; [22]
  Cholesterol-free media + simvastatin (0.04 μM): 0.8406
[2]; [23]
  Complete Media: 0.8869
[2]; [16]
  Difference: 0.05

## C#C[C@]1(O)CC[C@H]2[C@@H]3CCC4=Cc5oncc5C[C@]4(C)[C@H]3CC[C@@]21C [Danazol]
[1]; [24]
  Difference: −0.06
[1]; [13]
  Cholesterol-free: 0.8249
[1]; [14]
  Complete: 0.7604
[2]; [5]
  Cholesterol-free media + simvastatin (0.04 μM): 1.056
[2]; [6]
  Complete Media: 0.9458
[2]; [7]
  Difference: −0.11

## CC1(C)[C@@H](OC(=O)CCC(=O)O)CC[C@]2(C)[C@H]3C(=O)C=C4[C@@H]5C[C@@](C)(C(=O)O)CC[C@]5(C)CC[C@@]4(C)[C@]3(C)CC[C@@H]12 [Carbenoxolone (disodium)]
[1]; [24]
  Difference: −0.05
[1]; [13]
  Cholesterol-free: 1.149
[1]; [14]
  Complete: 1.095
[2]; [17]
  Cholesterol-free media + simvastatin (0.04 μM): 0.9745
[2]; [18]
  Complete Media: 0.9823
[2]; [19]
  Difference: 0.01

## O=C(O)CCNC(=O)c1ccc(/N=N/c2ccc(O)c(C(=O)O)c2)cc1 [Balsalazide]
[1]; [3]
  Cholesterol-free: 1.245
[1]; NCI-H292 cells, complete media
  Complete: 0.9198
[1]; [4]
  Difference: −0.33
[2]; [22]
  Cholesterol-free media + simvastatin (0.04 μM): 1.228
[2]; [23]
  Complete Media: 1.264
[2]; [16]
  Difference: 0.04

## OCCOc1ccc(/C(=C(/CCCl)c2ccccc2)c2ccccc2)cc1 [Ospemifene]
[1]
  Cholesterol-free: 1.029
  Complete: 1.255
  Difference: 0.23
[2]
  Cholesterol-free media + simvastatin (0.04 μM): 1.909
  Complete Media: 1.222
  Difference: −0.69

## CC1(C)O[C@@H]2C[C@H]3[C@@H]4C[C@H](F)C5=CC(=O)C=C[C@]5(C)[C@H]4[C@@H](O)C[C@]3(C)[C@]2(C(=O)CO)O1 [Flunisolide]
[1]; [24]
  Difference: −0.06
[1]; [13]
  Cholesterol-free: 0.8546
[1]; [14]
  Complete: 0.7935
[2]; [22]
  Cholesterol-free media + simvastatin (0.04 μM): 0.5373
[2]; [23]
  Complete Media: 0.6048
[2]; [16]
  Difference: 0.07

## O=C(NC(Cc1cc(=O)[nH]c2ccccc12)C(=O)O)c1ccc(Cl)cc1 (stereo not shown) [Rebamipide]
[1]; [8]
  Difference: −0.60
[1]; [9]
  Cholesterol-free: 1.735
[1]; [10]
  Complete: 1.132
[2]; [5]
  Cholesterol-free media + simvastatin (0.04 μM): 1.344
[2]; [6]
  Complete Media: 1.19
[2]; [7]
  Difference: −0.15

From patent US20250144067A1, “PERSONALIZED STARVATION THERAPY FOR CANCER” (Faeth Therapeutics, Inc., priority 2021, published 2025)
